# Measurements reported in US10258610B2, “Pharmaceutical compositions comprising rifaximin, processes for their preparation and their use in the treatment of vaginal infections” (ALFASIGMA S.P.A., priority 2011, dated 2019).
# Tested on: vaginal microbiota
# Assay: Vaginal microbiota by PCR-DGGE (cluster analysis, Similarity Index, Richness Index)
# Format: in vivo, human
# Set-up: key to Similarity Index V1-V3 / Similarity Index V1-V4 / Similarity Index V3-V4 / Similarity Index V1-V3-V4: % similarity between DGGE profiles (Pearson correlation)
# Description: During the clinical trial samples of vaginal rinses were taken, and the composition of vaginal microbiota was determined by means of the PCR-DGGE technique, allowing the identification of various bacterial DNA through an electrophoretic process and a DNA amplification with universal primers for the bacterial 16S rRNA region. The result of this technique was a sequence of visible bands, called clusters, wherein each of them is representative for the DNA of bacterial species present in the considered sample. The analysis of clusters of DGGE profiles of samples, carried out by using the FPQuest software (Bio-Rad) gives the information relating to the similarity of two samples. In the specific case wherein the recovery is intended as reduction of pathogenic species, it is positive that the sample of a patient after treatment is quite different from the sample of the same patient before treatment. The analysis was carried out with vaginal samples at the visits V1, V3 and V4 for the four groups A, B, C and D of treated patients. In order to evaluate the pharmacological action of the examined rifaximin preparations, different treatment groups were compared through the so called Similarity Indexes (SI). The analysis consists in evaluating the similarity of electrophoretic profiles calculated on the basis of the Pearson correlation coefficient. In the examined case, SI indicates the percent similarity between two or more DGGE profiles belonging to the same person at the different visits. Another adopted criterion of evaluation of the samples is the so called Richness Index (RI). This criterion, based on the bands of each DGGE profile, gives the measure of the complexity of the bacterial population, which is a sign of disease for the occurrence of new pathogenic species. Table 32 reports the RI average values, measured at the visits V1 and V3.
# [1] = Group A: 1 tablet 100 mg × 5 days
# [2] = Group B: 1 tablet 25 mg × 5 days
# [3] = Group C: 1 tablet 100 mg × 2 days
smiles,measurement,setting,value
CO[C@H]1/C=C/O[C@@]2(C)Oc3c(C)c(O)c4c(O)c(c5c(nc6cc(C)ccn65)c4c3C2=O)NC(=O)/C(C)=C\C=C\[C@H](C)[C@H](O)[C@@H](C)[C@@H](O)[C@@H](C)[C@H](OC(C)=O)[C@@H]1C [Rifaximin],"Percent of patients with clusterizing profiles, V1 vs. V3",[1],37%
same,"Percent of patients with clusterizing profiles, V1 vs. V3 vs. V4",[1],0%
same,Similarity Index V1-V3,[1],61.6
same,Similarity Index V1-V3-V4,[1],50.8
same,Similarity Index V1-V4,[1],52.1
same,Similarity Index V3-V4,[1],66.8
same,"Percent of patients with clusterizing profiles, V1 vs. V3",[2],24%
same,"Percent of patients with clusterizing profiles, V1 vs. V3 vs. V4",[2],0%
same,Similarity Index V1-V3,[2],48.4
same,Similarity Index V1-V3-V4,[2],36.4
same,Similarity Index V1-V4,[2],40.0
same,Similarity Index V3-V4,[2],62.1
same,"Percent of patients with clusterizing profiles, V1 vs. V3",[3],28%
same,"Percent of patients with clusterizing profiles, V1 vs. V3 vs. V4",[3],11%
same,Similarity Index V1-V3,[3],54.0
same,Similarity Index V1-V3-V4,[3],37.6
same,Similarity Index V1-V4,[3],47.1
same,Similarity Index V3-V4,[3],42.8
same,Richness Index,"visit V1 (before therapy), Group A: 1 tablet 100 mg × 5 days",13.5
same,Richness Index,"visit V1 (before therapy), Group B: 1 tablet 25 mg × 5 days",14.0
same,Richness Index,"visit V1 (before therapy), Group C: 1 tablet 100 mg × 2 days",15.4
same,Richness Index,"visit V3, Group A: 1 tablet 100 mg × 5 days",10.9
same,Richness Index,"visit V3, Group B: 1 tablet 25 mg × 5 days",10.7
same,Richness Index,"visit V3, Group C: 1 tablet 100 mg × 2 days",12.2
